The IC50 is the point on the concentration scale where inhibition reaches its midpoint. High values mean weaker potency, low ones greater potency.

Positions of bridges follow the written chain, without caps; N, C: chain ends. Non-standard residues stand in square brackets, D forms with d. Residues, ends and D or L forms follow the SMILES beside them. *: point of attachment. X1 = CC(=O)O[C@H]1C(=O)[C@@]2(C)[C@H]([C@H](OC(=O)c3ccccc3)[C@]3(O)C[C@H](OC(=O)[C@H](OC(=O)OCc4ccc(N*)cc4)[C@@H](NC(=O)c4ccccc4)c4ccccc4)C(C)=C1C3(C)C)[C@]1(OC(C)=O)CO[C@@H]1C[C@@H]2O; Cit = NC(=O)NCCC[C@H](N)C(=O)O

This experiment deals with SJSA-1. In words: Cytotoxicity against human SJSA1 cells expressing GRP78 after 6 hrs by MTT assay. It counts as functional, cell-based. The conditions noted are these: SJSA-1, 6 h.
Take `CC(=O)N[C@H]1CSSC[C@@H](C(=O)N[C@H](C(=O)N[C@@H](CCCNC(N)=O)C(=O)N[C@H](C(=O)N[C@@H](CCCNC(N)=O)C(=O)Nc2ccc(COC(=O)O[C@@H](C(=O)O[C@H]3C[C@@]4(O)[C@@H](OC(=O)c5ccccc5)[C@@H]5[C@]6(OC(C)=O)CO[C@@H]6C[C@H](O)[C@@]5(C)C(=O)[C@H](OC(C)=O)C(=C3C)C4(C)C)[C@@H](NC(=O)c3ccccc3)c3ccccc3)cc2)C(C)C)C(C)C)NC(=O)[C@H](C(C)C)NC(=O)[C@H](CCCNC(=N)N)NC(=O)[C@H](C(C)C)NC(=O)[C@H](Cc2ccc(O)cc2)NC(=O)CNC(=O)CNC(=O)[C@@H]2CCCN2C(=O)[C@H](CC(C)C)NC(=O)[C@H](C)NC(=O)[C@H](C(C)C)NC(=O)[C@H]([C@@H](C)O)NC1=O` (Ac-CTVALPGGYVRVCV[Cit]V[Cit]-X1; disulfide 1-13): the IC50 amounted to 1.1 nM.

The molecule `CC(=O)O[C@H]1C(=O)[C@@]2(C)[C@H]([C@H](OC(=O)c3ccccc3)[C@]3(O)C[C@H](OC(=O)[C@H](O)[C@@H](NC(=O)c4ccccc4)c4ccccc4)C(C)=C1C3(C)C)[C@]1(OC(C)=O)CO[C@@H]1C[C@@H]2O` [PACLITAXEL] returned an IC50 of 3.2 nM.

The molecule `COc1cccc2c1C(=O)c1c(O)c3c(c(O)c1C2=O)C[C@@](O)(C(=O)CO)C[C@@H]3O[C@H]1C[C@H](N)[C@H](O)[C@H](C)O1` [DOXORUBICIN] gave an IC50 of 6.2 nM.

Values taken from ChEMBL document CHEMBL1141627, “A cell-penetrating peptidic GRP78 ligand for tumor cell-specific prodrug therapy” (Bioorg Med Chem Lett, 2008).
